One data set concerns guinea pig left atria. Briefly: Positive inotropic effect in guinea pig left atria. Conditions: Cavia porcellus; for EC50: left atria paced at 2 Hz, Krebs bicarbonate, 37°, cumulative addition to maximum 10^-4, read-out: EC50 = concentration that increases DT (developed tension) by 50% above the control DT; for Emax: relative to Bay K8644, expressed in percent, read-out: Intrinsic Activity: ratio of the maximum effect of the test compound to that of Bay K8644. As for the experimental part:
Guinea pigs are killed by cervical dislocation. The left atria are removed and mounted at 1 gm resting tension in tissue baths containing oxygenated Krebs bicarbonate solution which is kept at 37°. The left atria are electrically paced at 2 Hz with square wave pulses of 1 msec duration. The voltage is set at 1.5×threshold level.
After a one hour equilibration period, control values for developed tension (DT, gm) are recorded. Test compounds are then added to the baths, in a cumulative manner to a maximum concentration of 10^-4, to obtain a concentration-response curve. Treatment values of DT are obtained after the drug effect has reached a plateau and the exposure time for each concentration is 5-8 minutes. Percent change of the treatment value from the control value is calculated at each concentration of the test compound.
^a EC50 (M) = concentration that increases DT by 50% above the
^b Intrinsic Activity is a ratio of the maximum effect of the test
compound to that of Bay K8644 and expressed in percent.

Data set [1] has as its system influx of calcium ions into cells. The settings on record: background statement; cited from earlier work.
Data set [2] addresses T1, Ca^2+ channel (rat cardiac microsomes) (Rattus norvegicus, UniProt P22002).
T1 construct: The reaction mixture contained rat cardiac microsomes; from tissue; host or cells: rat heart (cardiac microsomes)
Nature of the data set: [3H]-Nitrendipine binding assay (affinity for calcium channels). Conditions: 0.5 nM [3H]-nitrendipine, Tris buffer, 60 minutes at 25°. As to the method: [^3 H]-Nitrendipine binding assay was carried out according to the method described by G. T. Bolger, et al., Biochem. Biophys. Res. Comm. 104, 1604-1609 (1982). The reaction mixture contained rat cardiac microsomes (source of Ca^2+ channels), 0.5 nM [^3 H]-nitrendipinewith or without potential displacer in Tris buffer. The mixture was incubated for 60 minutes at 25° and subsequently terminated by rapid filtration through a glass fiber-filter. Membrane-bound [^3 H]-nitrendipine trapped in the filter was quantitated by scintillation counting. The inhibitory concentration (IC50) of potential displacer which gives 50% displacement of the total specifically bound [^3 H]-nitrendipine is presented as a measure of the affinity of such compound for the Ca^2+ channel.

Data set [3] addresses alpha1-adrenoceptor (rat brain membranes). Briefly: [3H]-Prazosin binding assay (affinity for alpha1-adrenoceptors). The settings on record: 0.2 nM [3H]-prazosin, partially purified rat brain membranes, Tris buffer, 60 minutes at 25°. As to the method:
The [^3 H]-prazosin binding assay was carried out according to the method described by Timmermans, P. B. M. W. M., Schoop, A. M. C., and Van Zwieten, P. A., Biochem. Pharmacol. 31, 899-905 (1982). The reaction mixture contained partially purified rat brain membranes (source of alpha1 -adrenoceptors), 0.2 nM [^3 H]-prazosin with or without potential displacer in Tris buffer. The mixture was incubated for 60 minutes at 25° and subsequently terminated by rapid filtration through glass fiber-filter. Receptor-bound [^3 H]-prazosin trapped in the filter was quantitated by scintillation counting. The inhibitory concentration (IC50) of potential displacer which gives 50% displacement of the total specifically bound [^3 H]-prazosin is presented as a measure of the affinity of such compound for the alpha1 -adrenoceptor.

We go through 15 compounds from US5314887A, “2-amino-1, 4-dihydropyridine derivatives with calcium agonist and alpha -antagonist activity” (The Du Pont Merck Pharmaceutical Company, priority 1992, dated 1994).

T1 sequence (P22002 whole entry, other chains not shown): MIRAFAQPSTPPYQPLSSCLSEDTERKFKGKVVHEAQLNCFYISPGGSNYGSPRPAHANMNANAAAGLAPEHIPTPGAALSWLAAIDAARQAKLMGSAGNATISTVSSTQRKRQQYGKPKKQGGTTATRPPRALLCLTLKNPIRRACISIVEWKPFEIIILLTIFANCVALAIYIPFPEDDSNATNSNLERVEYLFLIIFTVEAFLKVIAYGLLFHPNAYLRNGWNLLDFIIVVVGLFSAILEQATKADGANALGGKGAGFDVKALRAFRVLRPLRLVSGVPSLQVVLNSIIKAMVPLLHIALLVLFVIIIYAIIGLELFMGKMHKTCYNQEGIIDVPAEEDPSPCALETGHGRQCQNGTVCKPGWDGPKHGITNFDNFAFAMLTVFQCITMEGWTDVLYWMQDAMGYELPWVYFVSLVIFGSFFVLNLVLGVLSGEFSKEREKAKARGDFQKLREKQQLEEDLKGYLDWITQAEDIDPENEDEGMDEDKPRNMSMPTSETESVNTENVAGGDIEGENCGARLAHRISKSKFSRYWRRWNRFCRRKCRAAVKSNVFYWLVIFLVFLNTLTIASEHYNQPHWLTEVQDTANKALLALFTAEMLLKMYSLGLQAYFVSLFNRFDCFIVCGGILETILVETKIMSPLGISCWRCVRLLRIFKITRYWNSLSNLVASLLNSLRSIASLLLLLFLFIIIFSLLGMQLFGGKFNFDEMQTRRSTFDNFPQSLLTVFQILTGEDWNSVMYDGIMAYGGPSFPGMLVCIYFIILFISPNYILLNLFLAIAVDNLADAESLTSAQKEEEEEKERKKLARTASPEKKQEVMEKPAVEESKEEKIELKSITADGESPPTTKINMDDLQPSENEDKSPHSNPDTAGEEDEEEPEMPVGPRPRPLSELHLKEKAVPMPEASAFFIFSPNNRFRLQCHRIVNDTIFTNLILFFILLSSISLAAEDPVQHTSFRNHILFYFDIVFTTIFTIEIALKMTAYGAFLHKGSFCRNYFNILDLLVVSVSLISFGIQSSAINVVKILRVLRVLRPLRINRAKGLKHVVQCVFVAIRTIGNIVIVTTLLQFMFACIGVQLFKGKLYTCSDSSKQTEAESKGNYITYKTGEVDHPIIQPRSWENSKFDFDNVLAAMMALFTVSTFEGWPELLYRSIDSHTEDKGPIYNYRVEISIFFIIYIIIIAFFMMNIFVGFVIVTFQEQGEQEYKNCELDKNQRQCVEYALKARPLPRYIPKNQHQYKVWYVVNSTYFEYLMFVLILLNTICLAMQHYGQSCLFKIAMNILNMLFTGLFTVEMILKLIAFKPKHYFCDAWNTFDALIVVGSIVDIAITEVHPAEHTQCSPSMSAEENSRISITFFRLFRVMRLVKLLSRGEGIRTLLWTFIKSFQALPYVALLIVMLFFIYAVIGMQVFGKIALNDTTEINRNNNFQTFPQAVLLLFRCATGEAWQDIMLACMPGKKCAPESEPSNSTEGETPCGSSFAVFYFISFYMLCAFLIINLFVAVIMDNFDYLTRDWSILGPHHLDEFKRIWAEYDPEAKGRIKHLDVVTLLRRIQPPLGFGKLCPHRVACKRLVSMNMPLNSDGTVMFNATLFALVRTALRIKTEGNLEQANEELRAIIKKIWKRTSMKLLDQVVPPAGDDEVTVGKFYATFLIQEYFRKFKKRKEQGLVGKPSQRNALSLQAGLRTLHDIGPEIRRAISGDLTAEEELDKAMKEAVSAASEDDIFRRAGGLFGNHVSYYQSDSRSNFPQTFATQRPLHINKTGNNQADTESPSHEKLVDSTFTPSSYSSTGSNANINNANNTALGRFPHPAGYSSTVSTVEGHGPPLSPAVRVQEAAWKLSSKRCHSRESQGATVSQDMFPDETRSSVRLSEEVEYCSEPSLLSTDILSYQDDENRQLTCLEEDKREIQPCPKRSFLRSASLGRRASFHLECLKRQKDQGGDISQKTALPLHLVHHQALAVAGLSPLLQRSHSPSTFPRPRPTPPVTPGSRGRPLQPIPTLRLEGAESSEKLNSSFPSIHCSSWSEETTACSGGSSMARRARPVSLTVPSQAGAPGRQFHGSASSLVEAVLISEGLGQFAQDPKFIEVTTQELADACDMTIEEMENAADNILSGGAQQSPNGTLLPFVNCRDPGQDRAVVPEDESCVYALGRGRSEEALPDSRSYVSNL
T1 sequence (P54290 25-944 partner limits assumed, other chains not shown): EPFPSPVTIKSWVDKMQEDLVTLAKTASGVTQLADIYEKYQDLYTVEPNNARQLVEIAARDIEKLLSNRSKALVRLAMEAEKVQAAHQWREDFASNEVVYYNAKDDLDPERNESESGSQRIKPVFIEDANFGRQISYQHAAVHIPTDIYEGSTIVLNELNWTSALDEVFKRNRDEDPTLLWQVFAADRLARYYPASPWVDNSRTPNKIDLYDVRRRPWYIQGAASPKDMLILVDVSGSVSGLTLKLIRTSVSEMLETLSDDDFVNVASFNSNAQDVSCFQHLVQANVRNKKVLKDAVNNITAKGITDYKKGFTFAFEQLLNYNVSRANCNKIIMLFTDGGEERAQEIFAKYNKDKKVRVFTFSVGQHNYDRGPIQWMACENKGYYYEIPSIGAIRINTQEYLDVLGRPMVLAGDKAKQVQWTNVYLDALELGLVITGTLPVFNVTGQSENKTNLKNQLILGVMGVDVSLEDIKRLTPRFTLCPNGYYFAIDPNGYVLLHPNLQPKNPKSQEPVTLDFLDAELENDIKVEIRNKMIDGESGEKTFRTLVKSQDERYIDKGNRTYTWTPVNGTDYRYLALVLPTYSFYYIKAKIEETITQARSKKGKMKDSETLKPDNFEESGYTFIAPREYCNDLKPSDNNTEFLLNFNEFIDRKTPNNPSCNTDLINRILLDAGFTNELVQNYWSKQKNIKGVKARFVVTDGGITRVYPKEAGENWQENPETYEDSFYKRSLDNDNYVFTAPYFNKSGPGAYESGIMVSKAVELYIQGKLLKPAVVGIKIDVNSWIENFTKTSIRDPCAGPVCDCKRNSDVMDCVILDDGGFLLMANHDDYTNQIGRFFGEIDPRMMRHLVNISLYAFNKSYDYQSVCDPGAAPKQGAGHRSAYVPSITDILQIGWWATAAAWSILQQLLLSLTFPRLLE
T1 sequence (P54290 945-1091 partner limits assumed, other chains not shown): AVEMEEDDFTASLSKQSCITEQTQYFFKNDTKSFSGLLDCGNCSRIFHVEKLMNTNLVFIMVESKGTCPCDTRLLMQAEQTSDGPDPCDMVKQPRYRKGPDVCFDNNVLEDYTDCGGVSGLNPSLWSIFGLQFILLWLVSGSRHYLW

Take `COC(=O)C1=C(C)NC(C)=C([N+](=O)[O-])C1c1ccccc1C(F)(F)F` (stereo not shown) [Bay K8644]: in the data set with guinea pig left atria, the EC50 turned out to be 150 nM and the Emax is 100%. Moreover, in data set [1], the coronary vasoconstricting properties result is given as “coronary vasoconstricting properties”; the “effect on calcium influx, inotropic and vasoconstrictor effects” value was “promote an influx of calcium ions into cells, thereby producing positive inotropic and vasoconstrictor effects”; the “potency as a calcium agonist relative to CGP 28392” value is “more than ten times as potent as CGP 28392”.
With `CCOC(=O)C1=C(C)NC2=C(C(=O)OC2)C1c1ccccc1OC(F)F` (stereo not shown) [CGP 28392], the “effect on calcium influx, inotropic and vasoconstrictor effects” value in data set [1] was “promote an influx of calcium ions into cells, thereby producing positive inotropic and vasoconstrictor effects”.
Usually IC50 stands for the concentration that gives 50% inhibition. Consider `COC(=O)C1=C(N)NC(C)=C([N+](=O)[O-])C1c1ccccc1SCCCCN1CCN(c2ccccc2OC)CC1` (stereo not shown) [Example 1, 2-Amino-1,4-dihydro-4-(2-{4-[4-(2-methoxyphenyl)-1-piperazinyl]-butylthio}phenyl)-6-methyl-5-nitro-3-pyridinecarboxylic acid methyl ester], for which, in data set [2], the IC50 is 520 nM. The IC50 in data set [3] was 60 nM. Also, in the data set with guinea pig left atria, the EC50 was 550 nM and the Emax was 166%.
On the same counts, the results for `COC(=O)C1=C(N)NC(C)=C([N+](=O)[O-])C1c1ccccc1[S+]([O-])CCCCN1CCN(c2ccccc2OC)CC1` (stereo not shown) [Example 2, 2-Amino-1,4-dihydro-4-(2-{4-[4-(2-methoxyphenyl)-1-piperazinyl]-butylsulfinyl}phenyl)-6-methyl-5-nitro-3-pyridinecarboxylic acid methyl ester] are 1700 nM, 11 nM, 5700 nM and 90%.
On the same counts, the results for `COC(=O)C1=C(N)NC(C)=C([N+](=O)[O-])C1c1ccccc1OCCCCCN1CCN(c2ncccn2)CC1` (stereo not shown) [Example 3, 2-Amino-1,4-dihydro-4-(2-{5-[4-(2-pyrimidinyl)-1-piperazinyl]-pentyloxy}phenyl)-6-methyl-5-nitro-3-pyridinecarboxylic acid methyl ester] are 930 nM, 160 nM, 1000 nM and 170%.
Regarding `COC(=O)C1=C(N)NC(C)=C([N+](=O)[O-])C1c1ccccc1OCCCCCN1CCN(c2ccccc2OC)CC1` (stereo not shown) [Example 4, 2-Amino-1,4-dihydro-4-(2-{5-[4-(2-methoxyphenyl)-1-piperazinyl]-pentyloxy}phenyl)-6-methyl-5-nitro-3-pyridinecarboxylic acid methyl ester], the concentration for half-maximal inhibition (IC50) in data set [2] worked out at 1600 nM. The compound further returned an IC50 in data set [3] of 3400 nM. Moreover, in the data set with guinea pig left atria, the EC50 is 1600 nM and the Emax worked out at 128%.
As for `COC(=O)C1=C(N)NC(C)=C([N+](=O)[O-])C1c1ccccc1S(=O)(=O)CCCCN1CCN(c2ccccc2OC)CC1` (stereo not shown) [Example 5, 2-Amino-1,4-dihydro-4-(2-{4-[4-(2-methoxyphenyl)-1-piperazinyl]-butylsulfonyl}phenyl)-6-methyl-5-nitro-3-pyridinecarboxylic acid methyl ester], the IC50 in data set [2] worked out at 390 nM. Further, the 50% inhibitory concentration (IC50) in data set [3] was determined as 60 nM. Moreover, in the data set on guinea pig left atria, the EC50 worked out at 1500 nM and the Emax came to 119%.
For `COC(=O)C1=C(N)NC(C)=C([N+](=O)[O-])C1c1ccccc1SCCCCN1CCN(c2ncccn2)CC1` (stereo not shown) [Example 6], the IC50 in data set [2] was 400 nM. The compound further returned an IC50 in data set [3] of 4500 nM. For the same compound, in the data set with guinea pig left atria, the EC50 was determined as 47 nM and the Emax stood at 113%.
With `COC(=O)C1=C(N)NC(C)=C([N+](=O)[O-])C1c1ccccc1SCCCCN1CCC(C(=O)c2ccc(F)cc2)CC1` (stereo not shown) [Example 7], the IC50 in data set [2] is 150 nM. This compound returned an IC50 in data set [3] of 150 nM. Moreover, in the data set on guinea pig left atria, the EC50 is 9600 nM and the Emax came out at 112%.
With `COC(=O)C1=C(N)NC(C)=C([N+](=O)[O-])C1c1ccccc1[S+]([O-])CCCCN1CCN(c2ncccn2)CC1` (stereo not shown) [Example 8, 2-Amino-1,4-dihydro-4-(2-{4-[4-(2-pyrimidinyl)-1-piperazinyl]-butylsulfinyl}phenyl)-6-methyl-5-nitro-3-pyridinecarboxylic acid methyl ester], the 50% inhibitory concentration (IC50) in data set [2] turned out to be 2300 nM. In addition, the IC50 in data set [3] is 2400 nM. In addition, in the data set with guinea pig left atria, the EC50 is 500 nM and the Emax came to 254%.
As for `COC(=O)C1=C(N)NC(C)=C([N+](=O)[O-])C1c1ccccc1[S+]([O-])CCCCN1CCC(C(=O)c2ccc(F)cc2)CC1` (stereo not shown) [Example 9], the IC50 in data set [2] stood at 2400 nM. Further, the IC50 in data set [3] was 150 nM. In addition, in the data set on guinea pig left atria, the EC50 was determined as 10000 nM and the Emax came to 56%.
Consider `COC(=O)C1=C(N)NC(C)=C([N+](=O)[O-])C1c1ccccc1SCCCN1CCN(c2ccccc2OC)CC1` (stereo not shown) [Example 10], for which the concentration for half-maximal inhibition (IC50) in data set [2] stood at 300 nM. This compound also registered an IC50 in data set [3] of 80 nM. Besides, in the data set with guinea pig left atria, the EC50 worked out at 3500 nM and the Emax was found to be 115%.
In the case of `COC(=O)C1=C(N)NC(C)=C([N+](=O)[O-])C1c1ccccc1SCCCCCN1CCN(c2ccccc2OC)CC1` (stereo not shown) [Example 11], the IC50 in data set [2] came out at 240 nM; in data set [3] it was 42 nM. Besides, in the data set on guinea pig left atria, the EC50 was determined as 2400 nM. The Emax in the data set with guinea pig left atria worked out at 112%.
Taken in the same sequence, the figures for `COC(=O)C1=C(N)NC(C)=C([N+](=O)[O-])C1c1ccccc1[S+]([O-])CCCN1CCN(c2ccccc2OC)CC1` (stereo not shown) [Example 12] were 620 nM, 52 nM, > 100000 nM and 35%.
Regarding `COC(=O)C1=C(N)NC(C)=C([N+](=O)[O-])C1c1ccccc1[S+]([O-])CCCCCN1CCN(c2ccccc2OC)CC1` (stereo not shown) [Example 13], in data set [2], the IC50 was 1300 nM. Moreover, the IC50 in data set [3] came to 25 nM. In addition, in the data set with guinea pig left atria, the EC50 was 5200 nM and the Emax was found to be 119%.
